Measurements: patent US20230085307A1, “PYRIDAZINONE COMPOUND AND HERBICIDE” (NISSAN CHEMICAL CORPORATION, priority 2019, published 2023)

Tested on: late watergrass
Test: Test Example 2: herbicidal activity, application during weed generation under submerged conditions (Table 17, symbol A)
Type: in vivo, late watergrass (Echinochloa oryzicola)
Conditions: AAH 320 g/ha; application during weed generation, submerged conditions
Summary of the method: (§1)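 Alluvial soil in Wagner pots was flooded to 4 cm depth and sown with the three weeds together; pots were kept in a greenhouse at 25° C. to 30° C. At the one to two leaf stage, an emulsion formulation diluted in water to a set rate went onto the water surface; scored three weeks later.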

For `Cc1nn(C)c(=O)c(-c2c(-c3ccc(OCCC(F)(F)F)cc3)sc3ccccc23)c1O` [1-206], which “herbicidal effect rating, A: late watergrass” value is on record?
Its value is 5 (Herbicidal rate of 90% or more (almost completely withered)).

How did the “herbicidal effect rating, A: late watergrass” value turn out when `C=C(Br)COc1ccc(-c2sc3ccccc3c2-c2c(O)c(C)nn(C)c2=O)cc1` [1-215] was run?
The value was 3 (Herbicidal rate of 40% or more and less than 70%).

Tested on: Japanese bulrush
Test: Test Example 2: herbicidal activity, application during weed generation under submerged conditions (Table 17, symbol B)
Type: in vivo, Japanese bulrush (Schoenoplectus juncoides)
Conditions: AAH 320 g/ha; application during weed generation, submerged conditions
Summary of the method: as §1

Which “herbicidal effect rating, B: Japanese bulrush” value does the source give for `Cc1nn(C)c(=O)c(-c2c(-c3ccc(OCCC(F)(F)F)cc3)sc3ccccc23)c1O` [1-206] here?
Its value is 3 (Herbicidal rate of 40% or more and less than 70%).

How did the “herbicidal effect rating, B: Japanese bulrush” value turn out when `C=C(Br)COc1ccc(-c2sc3ccccc3c2-c2c(O)c(C)nn(C)c2=O)cc1` [1-215] was run?
Its value is 3 (Herbicidal rate of 40% or more and less than 70%).

Tested on: oval-leafed pondweed
Test: Test Example 2: herbicidal activity, application during weed generation under submerged conditions (Table 17, symbol C)
Type: in vivo, oval-leafed pondweed (Monochoria vaginalis)
Conditions: AAH 320 g/ha; application during weed generation, submerged conditions
Summary of the method: as §1

`Cc1nn(C)c(=O)c(-c2c(-c3ccc(OCCC(F)(F)F)cc3)sc3ccccc23)c1O` [1-206] was tested. Which “herbicidal effect rating, C: oval-leafed pondweed” value did it give?
The value was 5 (Herbicidal rate of 90% or more (almost completely withered)).

With `C=C(Br)COc1ccc(-c2sc3ccccc3c2-c2c(O)c(C)nn(C)c2=O)cc1` [1-215] as the molecule, how does the “herbicidal effect rating, C: oval-leafed pondweed” value read?
Its value is 3 (Herbicidal rate of 40% or more and less than 70%).

Tested on: southern crabgrass
Test: Test Example 4: herbicidal effect by soil treatment (Table 19, symbol F)
Type: in vivo, southern crabgrass (Digitaria ciliaris)
Conditions: AAH 320 g/ha
Summary of the method: (§2)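 In this soil treatment, the formulated compound reached the seeds only through the soil: seeds were buried about 1.5 cm deep in sterilized diluvial soil, then the diluted emulsion was sprayed over the surface. After three weeks at 25° C. to 30° C. in a greenhouse, effects were graded on criteria from an earlier test.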

Which “F: southern crabgrass, herbicidal effect rating” value does the source give for `Cc1nn(C)c(=O)c(-c2c(-c3ccc(OCCC(F)(F)F)cc3)sc3ccccc23)c1O` [1-206] here?
The value was 4 (Herbicidal rate of 70% or more and less than 90%).

How did the “F: southern crabgrass, herbicidal effect rating” value turn out when `C=C(Br)COc1ccc(-c2sc3ccccc3c2-c2c(O)c(C)nn(C)c2=O)cc1` [1-215] was run?
The value was 0 (Herbicidal rate of 5% or less (almost no effect)).

Tested on: green foxtail
Test: Test Example 4: herbicidal effect by soil treatment (Table 19, symbol G)
Type: in vivo, green foxtail (Setaria viridis)
Conditions: AAH 320 g/ha
Summary of the method: as §2

How did the “G: green foxtail, herbicidal effect rating” value turn out when `Cc1nn(C)c(=O)c(-c2c(-c3ccc(OCCC(F)(F)F)cc3)sc3ccccc23)c1O` [1-206] was run?
Its value is 5 (Herbicidal rate of 90% or more (almost completely withered)).

`C=C(Br)COc1ccc(-c2sc3ccccc3c2-c2c(O)c(C)nn(C)c2=O)cc1` [1-215] was tested. Which “G: green foxtail, herbicidal effect rating” value did it give?
Its value is 0 (Herbicidal rate of 5% or less (almost no effect)).

Tested on: barnyard grass
Test: Test Example 4: herbicidal effect by soil treatment (Table 19, symbol H)
Type: in vivo, barnyard grass (Echinochloa crus-galli)
Conditions: AAH 320 g/ha
Summary of the method: as §2

How did the “H: barnyard grass, herbicidal effect rating” value turn out when `Cc1nn(C)c(=O)c(-c2c(-c3ccc(OCCC(F)(F)F)cc3)sc3ccccc23)c1O` [1-206] was run?
Its value is 5 (Herbicidal rate of 90% or more (almost completely withered)).

For `C=C(Br)COc1ccc(-c2sc3ccccc3c2-c2c(O)c(C)nn(C)c2=O)cc1` [1-215], which “H: barnyard grass, herbicidal effect rating” value is on record?
The value was 0 (Herbicidal rate of 5% or less (almost no effect)).

Tested on: wild oat
Test: Test Example 4: herbicidal effect by soil treatment (Table 19, symbol I)
Type: in vivo, wild oat (Avena fatua)
Conditions: AAH 320 g/ha
Summary of the method: as §2

`Cc1nn(C)c(=O)c(-c2c(-c3ccc(OCCC(F)(F)F)cc3)sc3ccccc23)c1O` [1-206] was tested. Which “I: wild oat, herbicidal effect rating” value did it give?
Its value is 0 (Herbicidal rate of 5% or less (almost no effect)).

For `C=C(Br)COc1ccc(-c2sc3ccccc3c2-c2c(O)c(C)nn(C)c2=O)cc1` [1-215], which “I: wild oat, herbicidal effect rating” value is on record?
Its value is 0 (Herbicidal rate of 5% or less (almost no effect)).

Tested on: blackgrass
Test: Test Example 4: herbicidal effect by soil treatment (Table 19, symbol J)
Type: in vivo, blackgrass (Alopecurus myosuroides)
Conditions: AAH 320 g/ha
Summary of the method: as §2

With `Cc1nn(C)c(=O)c(-c2c(-c3ccc(OCCC(F)(F)F)cc3)sc3ccccc23)c1O` [1-206] as the molecule, how does the “J: blackgrass, herbicidal effect rating” value read?
The value was 4 (Herbicidal rate of 70% or more and less than 90%).

For `C=C(Br)COc1ccc(-c2sc3ccccc3c2-c2c(O)c(C)nn(C)c2=O)cc1` [1-215], which “J: blackgrass, herbicidal effect rating” value is on record?
Its value is 0 (Herbicidal rate of 5% or less (almost no effect)).

Tested on: velvetleaf
Test: Test Example 4: herbicidal effect by soil treatment (Table 19, symbol M)
Type: in vivo, velvetleaf (Abutilon theophrasti)
Conditions: AAH 320 g/ha
Summary of the method: as §2

`Cc1nn(C)c(=O)c(-c2c(-c3ccc(OCCC(F)(F)F)cc3)sc3ccccc23)c1O` [1-206] was tested. Which “M: velvetleaf, herbicidal effect rating” value did it give?
The value was 3 (Herbicidal rate of 40% or more and less than 70%).

`C=C(Br)COc1ccc(-c2sc3ccccc3c2-c2c(O)c(C)nn(C)c2=O)cc1` [1-215] was tested. Which “M: velvetleaf, herbicidal effect rating” value did it give?
Its value is 0 (Herbicidal rate of 5% or less (almost no effect)).

Tested on: redroot pigweed
Test: Test Example 4: herbicidal effect by soil treatment (Table 19, symbol N)
Type: in vivo, redroot pigweed (Amaranthus retroflexus)
Conditions: AAH 320 g/ha
Summary of the method: as §2

Which “N: redroot pigweed, herbicidal effect rating” value does the source give for `Cc1nn(C)c(=O)c(-c2c(-c3ccc(OCCC(F)(F)F)cc3)sc3ccccc23)c1O` [1-206] here?
Its value is 5 (Herbicidal rate of 90% or more (almost completely withered)).

`C=C(Br)COc1ccc(-c2sc3ccccc3c2-c2c(O)c(C)nn(C)c2=O)cc1` [1-215] was tested. Which “N: redroot pigweed, herbicidal effect rating” value did it give?
Its value is 5 (Herbicidal rate of 90% or more (almost completely withered)).

Tested on: green foxtail
Test: Test Example 5: herbicidal effect by foliage application, plastic box (Table 20, symbol G)
Type: in vivo, green foxtail (Setaria viridis)
Conditions: foliage application, 320 g/ha, 3 weeks after application
Summary of the method: (§3)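 Plants were sown into sterilized diluvial soil under about 1.5 cm cover and kept in a greenhouse at 25° C. to 30° C. Fourteen days on, foliage received an even spray of the diluted emulsion. Herbicidal or crop effect was judged three weeks afterwards.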

For `Cc1nn(C)c(=O)c(-c2c(-c3ccc(OCCC(F)(F)F)cc3)sc3ccccc23)c1O` [1-206], which “effect on green foxtail (G)” value is on record?
The value was 5 (Herbicidal rate of 90% or more (almost completely withered)).

`C=C(Br)COc1ccc(-c2sc3ccccc3c2-c2c(O)c(C)nn(C)c2=O)cc1` [1-215] was tested. Which “effect on green foxtail (G)” value did it give?
The value was 5 (Herbicidal rate of 90% or more (almost completely withered)).

Tested on: Italian ryegrass
Test: Test Example 5: herbicidal effect by foliage application, plastic box (Table 20, symbol K)
Type: in vivo, Italian ryegrass (Lolium multiflorum)
Conditions: foliage application, 320 g/ha, 3 weeks after application
Summary of the method: as §3

`Cc1nn(C)c(=O)c(-c2c(-c3ccc(OCCC(F)(F)F)cc3)sc3ccccc23)c1O` [1-206] was tested. Which “effect on Italian ryegrass (K)” value did it give?
The value was 5 (Herbicidal rate of 90% or more (almost completely withered)).

For `C=C(Br)COc1ccc(-c2sc3ccccc3c2-c2c(O)c(C)nn(C)c2=O)cc1` [1-215], which “effect on Italian ryegrass (K)” value is on record?
Its value is 4 (Herbicidal rate of 70% or more and less than 90%).

Tested on: lambsquarters
Test: Test Example 5: herbicidal effect by foliage application, plastic box (Table 20, symbol O)
Type: in vivo, lambsquarters (Chenopodium album)
Conditions: foliage application, 320 g/ha, 3 weeks after application
Summary of the method: as §3

Which “effect on lambsquarters (O)” value does the source give for `Cc1nn(C)c(=O)c(-c2c(-c3ccc(OCCC(F)(F)F)cc3)sc3ccccc23)c1O` [1-206] here?
Its value is 5 (Herbicidal rate of 90% or more (almost completely withered)).

Which “effect on lambsquarters (O)” value does the source give for `C=C(Br)COc1ccc(-c2sc3ccccc3c2-c2c(O)c(C)nn(C)c2=O)cc1` [1-215] here?
Its value is 5 (Herbicidal rate of 90% or more (almost completely withered)).

Tested on: persian speedwell
Test: Test Example 5: herbicidal effect by foliage application, plastic box (Table 20, symbol R)
Type: in vivo, Persian speedwell (Veronica persica)
Conditions: foliage application, 320 g/ha, 3 weeks after application
Summary of the method: as §3

For `Cc1nn(C)c(=O)c(-c2c(-c3ccc(OCCC(F)(F)F)cc3)sc3ccccc23)c1O` [1-206], which “effect on persian speedwell (R)” value is on record?
The value was 5 (Herbicidal rate of 90% or more (almost completely withered)).

For `C=C(Br)COc1ccc(-c2sc3ccccc3c2-c2c(O)c(C)nn(C)c2=O)cc1` [1-215], which “effect on persian speedwell (R)” value is on record?
The value was 5 (Herbicidal rate of 90% or more (almost completely withered)).
